According to ChEMBL document CHEMBL1124315, “N- and 2-substituted N-(phenylsulfonyl)glycines as inhibitors of rat lens aldose reductase” (J Med Chem, 1989):

Target: Aldo-keto reductase family 1 member B1 (Rattus norvegicus, UniProt P07943)
Experiment: Inhibitory concentration against aldose reductase obtained from rat lens

| Compound | IC50 [µM] |
| --- | --- |
| O=C(O)c1ccccc1NS(=O)(=O)c1ccc(Cl)cc1 | 130 |
| O=C(O)CN(c1cccc(Cl)c1)S(=O)(=O)c1ccccc1 | 13 |
| O=C(O)c1ccccc1NS(=O)(=O)c1ccc(Br)cc1 | 85 |
| Cc1ccc(N(CC(=O)O)S(=O)(=O)c2ccccc2)cc1 | 26 |
| Cc1ccc(S(=O)(=O)NCC(=O)O)cc1 | 32 |
| COc1ccc(S(=O)(=O)NCC(=O)O)cc1 | 31 |
| O=C(O)[C@@H](NS(=O)(=O)c1ccc(F)cc1)c1ccccc1 | 25 |
| O=C(O)CN(c1ccc(F)cc1)S(=O)(=O)c1ccccc1 | 22 |
| O=C(O)CN(c1ccccc1)S(=O)(=O)c1ccccc1 | 29 |
| O=C(O)c1ccccc1NS(=O)(=O)c1ccc([N+](=O)[O-])cc1 | 390 |
| Nc1cccc(S(=O)(=O)N(CC(=O)O)c2ccccc2)c1 | 27 |
| O=C(O)[C@H](NS(=O)(=O)c1ccccc1)c1ccccc1 | 460 |
| Nc1ccccc1S(=O)(=O)NCC(=O)O | 37 |
| O=C(O)c1ccccc1NS(=O)(=O)c1ccccc1 | 65 |
| O=C(O)[C@@H](NS(=O)(=O)c1ccccc1)c1ccccc1 | 11 |
| COc1ccc(S(=O)(=O)N[C@H](C(=O)O)c2ccccc2)cc1 | 13 |
| Cc1ccc(S(=O)(=O)Nc2ccccc2C(=O)O)cc1 | 69 |
| Cc1ccc(S(=O)(=O)N[C@@H](C(=O)O)c2ccccc2)cc1 | 90 |
| COc1ccc(S(=O)(=O)N[C@@H](C(=O)O)c2ccccc2)cc1 | 36 |
| O=C(O)C(NS(=O)(=O)c1ccc2ccccc2c1)c1ccccc1 (single isomer, unassigned; 6m) | 230 |
| O=C(O)CN(c1ccc(Cl)cc1)S(=O)(=O)c1ccccc1 | 27 |

| Compound | IC50 [µM] |
| --- | --- |
| O=C(O)CNS(=O)(=O)c1ccccc1[N+](=O)[O-] | 13 |
| O=C(O)[C@H](NS(=O)(=O)c1ccc(F)cc1)c1ccccc1 | 960 |
| O=C(O)[C@H](NS(=O)(=O)c1ccc(Cl)cc1)c1ccccc1 | 340 |
| Cc1ccccc1N(CC(=O)O)S(=O)(=O)c1ccccc1 | 340 |
| Nc1ccccc1S(=O)(=O)N(CC(=O)O)c1ccccc1 | 67 |
| Nc1ccc(N(CC(=O)O)S(=O)(=O)c2ccccc2)cc1 | 68 |
| Cc1ccc(S(=O)(=O)N(CC(=O)O)c2ccccc2)cc1 | 14 |
| COc1ccc(S(=O)(=O)Nc2ccccc2C(=O)O)cc1 | 130 |
| O=C(O)CNS(=O)(=O)c1ccc(F)cc1 | 43 |
| O=C(O)CNS(=O)(=O)c1ccccc1 | 130 |
| CN(c1ccccc1C(=O)O)S(=O)(=O)c1ccc([N+](=O)[O-])cc1 | > 2000 |
| O=C(O)CN(c1ccccc1)S(=O)(=O)c1ccc(Cl)cc1 | 16 |
| COc1ccc(S(=O)(=O)N(C)c2ccccc2C(=O)O)cc1 | > 2000 |
| CN(c1ccccc1C(=O)O)S(=O)(=O)c1ccc2ccccc2c1 | 400 |
| Cc1cccc(N(CC(=O)O)S(=O)(=O)c2ccccc2)c1 | 27 |
| O=C(O)CNS(=O)(=O)c1ccc(Cl)cc1 | 130 |
| COc1ccc(N(CC(=O)O)S(=O)(=O)c2ccccc2)cc1 | 38 |
| O=C(O)CN(c1ccccc1)S(=O)(=O)c1ccc(F)cc1 | 26 |
| O=C(O)[C@H](NS(=O)(=O)c1ccc([N+](=O)[O-])cc1)c1ccccc1 | 980 |
| O=C(O)CNS(=O)(=O)c1ccc([N+](=O)[O-])cc1 | 79 |

Molecules with a lower IC50, results first:

| IC50 [µM] | Compound |
| --- | --- |
| 7.1 | O=C(O)[C@@H](NS(=O)(=O)c1ccc(Cl)cc1)c1ccccc1 |
| 8.9 | Cc1ccc(S(=O)(=O)N[C@H](C(=O)O)c2ccccc2)cc1 |
| 7.6 | O=C(O)CN(c1ccccc1Cl)S(=O)(=O)c1ccccc1 |
| 3.6 | O=C(O)CN(c1ccccc1)S(=O)(=O)c1ccccc1[N+](=O)[O-] |
| 1.8 | COc1ccc(S(=O)(=O)N(CC(=O)O)c2ccccc2)cc1 |
| 0.88 | O=C(O)CNS(=O)(=O)c1ccc(NC(=O)c2ccccc2)cc1 |
| 4.4 | O=C(O)CN(c1ccccc1)S(=O)(=O)c1ccc([N+](=O)[O-])cc1 |
| 8.6 | O=C(O)[C@@H](NS(=O)(=O)c1ccc([N+](=O)[O-])cc1)c1ccccc1 |
| 2.5 | O=C(O)C(NS(=O)(=O)c1ccc2ccccc2c1)c1ccccc1 (single isomer, unassigned; 6n) |
| 9.3 | Nc1ccc(S(=O)(=O)N(CC(=O)O)c2ccccc2)cc1 |
| 0.38 | O=C(O)CN(c1ccccc1)S(=O)(=O)c1ccc(NC(=O)c2ccccc2)cc1 |
| 4.5 | O=C(O)CN(c1ccccc1)S(=O)(=O)c1ccc2ccccc2c1 |
| 7.9 | Nc1ccc(S(=O)(=O)Nc2ccccc2C(=O)O)cc1 |
| 5.7 | O=C(O)c1ccccc1NS(=O)(=O)c1ccc2ccccc2c1 |
| 1.3 | O=C(O)CN(c1ccccc1)S(=O)(=O)c1cccc([N+](=O)[O-])c1 |
| 8.3 | O=C(O)c1ccccc1NS(=O)(=O)c1cccc2ccccc12 |
| 0.4 | O=C(O)CNS(=O)(=O)c1ccc2ccccc2c1 |
| 8.7 | O=C(O)CN(c1cccc([N+](=O)[O-])c1)S(=O)(=O)c1ccccc1 |
